According to patent US4247559A, “N-substituted maleimides in liquid concentrates” (Abbott Laboratories, priority 1979, dated 1981):

Key:
Assay type in all cases: cell-based
[1] = system: Aerobacter aerogenes, Pseudomonoas Sp., Bacillus subtilus and Bacillus megaterium; experiment: antibacterial test in nutrient broth tubes, presence or absence of turbidity; design: unit not given here; conditions: 48 hours at 37° C., subcultured and incubated 24 hours longer, challenge 1×10^6 colony-forming units each
Experimental: (§1) The new compounds are dissolved in DMF at a concentration of 50 mg/ml. and diluted with water to the appropriate concentration to be added to a nutrient broth in test tubes. The challenge mixture contains 1×10^6 colony-forming units each of Aerobacter aerogenes, Pseudomonoas Sp., Bacillus subtilus and Bacillus megaterium. Following inoculation, the tubes are incubated 48 hours at 37° C., subcultured to fresh nutrient broth and incubated 24 hours longer. The results are recorded as presence or absence of turbidity, turbidity indicating growth of the inoculum due to inactivity of the biocide at the concentration used in the broth.

[2] = system: A. niger and P. funiculosum; experiment: antifungal test on agar plates, visual inspection of growth; design: unit not given here; conditions: agar plates, 10,000 units each, 30° C. for two weeks
Experimental: In a related test, the above biocide solutions are added to agar plates at various concentrations and the plates are then inoculated with 1 ml. of a broth containing 10,000 units each of A. niger and P. funiculosum. The plates are then incubated at 30° C. for two weeks, and growth of the fungi is visually inspected to establish the minimum inhibitory concentration (MIC).

[3] = system: most common industrial fungi and bacteria; experiment: biocidal activity (summary statements on bacteria and fungi); conditions: conclusion from the table, in words
Experimental: as §1, with “broth. In a related test, the above biocide solutions are added to agar plates at various concentrations and the plates are then inoculated with 1 ml. of a broth containing 10,000 units each of A. niger and P. funiculosum. The plates are then incubated at 30° C. for two weeks, and growth of the fungi is visually inspected to establish the minimum inhibitory concentration (MIC).” for “broth.”

Row | SMILES | Antibacterial MIC [1] | Antifungal MIC [2] | biocidal activity [3]
1 | O=C1C=CC(=O)N1c1ccc(S(=O)(=O)CI)cc1 [R= p-CH2 I] |  | 100 | 
2 | O=C1C=CC(=O)N1c1ccc(S(=O)(=O)CCl)cc1 [R=p-CH2 Cl, N-[p-(chloromethylsulfonyl)phenyl]maleimide] | 1000 | 1000 | 
3 | O=C1C=CC(=O)N1c1ccc(S(=O)(=O)C(Cl)(Cl)Cl)cc1 [R= CCL3, reference compound] | inactive | inactive | ineffective

The next lines start with results.

Row | Antibacterial MIC [1] | Antifungal MIC [2] | SMILES | biocidal activity [3]
4 | 1000 | 1000 | O=C1C=CC(=O)N1c1ccc(S(=O)(=O)C(I)I)cc1 [R= p-CHI2, N-[p-(diiodomethylsulfonyl)phenyl]maleimide] | 
5 | 1000 | 1000 | O=C1C=CC(=O)N1c1ccc(S(=O)(=O)C(Cl)Cl)cc1 [R= p-CHCl2, N-[p-(dichloromethylsulfonyl)phenyl]maleimide] | 
